Reference: patent publication US11549134B2, “Modified amadoriase and method for producing the same, agent for improving surfactant resistance of amadoriase and composition for measuring HbA1c using the same” (Kikkoman Corporation, priority 2013, dated 2023)
One block for each molecule: values may come before it.

Key:
[1] = system: CFP-T7; test: Surfactant resistance of amadoriase during addition of each stabilizer (CFP-T7); format: biochemical, genus Coniochaeta; conditions: 500 mM HEPES (pH 7.0), 0.01% CTAC
Description: In the above surfactant resistance measuring method, various stabilizers are added and the residual activity of an amadoriase is measured in order to evaluate the effect of the stabilizers. […] The concentration sufficient to provide a buffer capacity to a solution refers to the concentration at which pH is maintained within a predetermined range (for example pH5 to 10, pH6 to 8) without having pH change due to other reagents added to the solution. A concentration insufficient to provide a buffer capacity to a solution refers to the concentration at which pH changes by addition of other reagents to the solution and pH falls outside a particular range. These concentrations vary depending upon the type and amount of other reagents to be added to a solution; however, a person skilled in the art can appropriately determine the concentration by conventional methods. Other conditions and procedure can be the same as in the above surfactant resistance measuring method.
It was studied whether or not the addition of any of various stabilizers enhanced the surfactant resistance of an amadoriase. Phosphoric acid, a tricarboxylic acid (e.g., citric acid), a dicarboxylic acid (e.g., malic acid, maleic acid, citraconic acid, malonic acid, glutaric acid, or tartaric acid), a monpcarboxylic acid (e.g., acetic acid), MES, MOPS, MOPSO, or ammonium sulfate was used as a stabilizer. As a Comparative Example, CHES was used. To prevent change in pH when adding the stabilizer, 500 mM HEPES (pH 7.0) was used as a buffer solution; CFP-T7 purified as described above was used as a sample; the final concentration of CTAC was set at 0.01%; and any of the stabilizers was further added to evaluate the surfactant resistance of CFP-T7 according to the measurement method for surfactant resistance in Example 1. Using a 500 mM HEPES (pH 7.0) buffering agent and CFP-D2 purified as described above as a sample, any of the stabilizers was further added, and the surfactant resistance of CFP-D2 was evaluated according to the measurement method for surfactant resistance in Example 1 although under more harsh surfactant treatment conditions in which the final concentration of CTAC was set at 0.08% and the treatment temperature at 37° C.

[2] = system: PnFX; test: Surfactant resistance of PnFX during addition of each stabilizer; format: biochemical, Phaeosphaeria nodorum; conditions: Stabilizer 20 mM; 300 mM HEPES (pH 7.0); 0.04% CTAC
Description: The same stabilizers as those described above were used as stabilizers; 300 mM HEPES (pH 7.0) was used as a buffering agent to prevent a change in pH when the stabilizers was each added; PnFX purified as described above was used as a sample; the final concentration of CTAC was set at 0.04%; and the surfactant resistance of PnFX was evaluated as described above.

[3] = system: CFP-T7; test: Surfactant resistance of amadoriase in presence of buffering agents; format: biochemical, genus Coniochaeta; conditions: for CFP-T7 Residual Activity (%): 0.01% CTAC, purified CFP-T7; for amadoriase stabilizing effect of the buffer (in words): CFP-T7 in the presence of surfactant
Description: In the above surfactant resistance measuring method, the residual activity of an amadoriase is measured by using various buffers in place of a 30 mM MES/21 mM Tris buffer solution. In this manner, the contribution of the buffer to the amadoriase residual activity can be evaluated. For example, in place of the 30 mM MES/21 mM Tris buffer solution (pH 6.5), e.g., a phosphate buffer solution (pH 7.0), a citrate buffer solution (pH 6.0), a HEPES buffer solution (pH 7.0) or an ACES buffer solution (pH 7.0) can be used. Other conditions and procedure can be the same as in the above surfactant resistance measuring method.
It was studied whether the surfactant resistance of an amadoriase is enhanced or not when a buffering agent other than a 30 mM MES/21 mM Tris buffering agent (pH 6.5) was used. Using CFP-T7 purified as described above as a sample, the final concentration of CTAC was set at 0.01% to evaluate the surfactant resistance of CFP-T7 according to the measurement method for surfactant resistance in Example 1 in the presence of any of various buffering agents, specifically a phosphate buffering agent containing phosphoric acid and potassium phosphate (pH 7.0), a citrate buffering agent containing citric acid and sodium citrate (pH 6.0), an MES buffering agent containing MES and it sodium salt (pH 7.0), an HEPES buffering agent containing HEPES and its sodium salt (pH 7.0), and an ACES buffering agent containing ACES and its sodium salt (pH 7.0), in place of the 30 mM MES/21 mM Tris buffering agent (pH 6.5).

[4] = Measurement of fructosyl peptide sample (αFVH) under mixing of CTAC, change in absorbance at 751 nm; format: biochemical; conditions: for Amount of Change in Absorbance at Wavelength of 751 nm under Mixing of Each Concentration of CTAC: as in Example 5, Table 7
Description: The purified enzyme of CFP-T7 and CFP-D7 obtained in Example 3-2 was used to measure a sample as shown below. The activity values of CFP-T7 and CFP-D7 were determined using (reagent 1) adjusted to pH 7.0 with αFVH at a final concentration of 5 mM as a substrate according to the method for measuring amadoriase activity.
(Reagent 4) αFVH (125 mg) was dissolved in ion-exchanged water, the volume of the solution was fixed to 10 ml, and thereby a 30 mM substrate solution was obtained. In addition, the resultant was diluted by 1/714 with a CTAC solution to provide a 42 μM αFVH/0% to 0.2% CTAC solution.
(Reagent 6) (50 μl) was added to a mixed solution of 135 μl of (reagent 5) warmed at 37° C. for 5 minutes in advance and 25 μl of the sample prepared in (11) above to start reaction, and absorbance at a wavelength of 751 nm after reaction at 37° C. for 5 minutes was measured using an automated analyzer, Bio Majesty JCA-BM1650 (from JEOL Ltd.). Absorbance (reagent blank) at a wavelength of 751 nm measured by a similar operation for (reagent 4) prepared using ion-exchanged water in place of the substrate solution was used as a control to calculate the amount of change in absorbance (difference) when each sample was measured, using the following equation. The final concentration of a colorimetric substrate, DA-64, was 0.15 mM; the final concentration of αFVH in the case of the presence of a substrate was 5 μM; and the length (optical path) of the cell used for absorbance measurement was 1 cm. Amount of change in absorbance=ΔAes−Ae0
The amount of change in absorbance when αFVH/0% to 0.2% CTAC were used as samples was calculated.
The purified preparations of amadoriases obtained as described above were used as samples to measure αFVH under the mixing of CTAC using PnFX and NvFX as in Example 5.

[5] = Buffer Solution 100 mM, pH 7.0 (citrate pH 6.0)

CFP-T7 Residual Activity (%) ([1]; Stabilizer 2 mM, Table 9-2): 5.3%
CFP-T7 Residual Activity (%) ([1]; Stabilizer 10 mM, Table 9-2): 70.0%
Molecule: O=C(O)C(O)C(O)C(=O)O (centres unmarked) [Tartrate, tartaric acid]

CFP-T7 Residual Activity (%) ([1]; Stabilizer 10 mM, Table 9-2): 9.0%
CFP-T7 Residual Activity (%) ([1]; Stabilizer 20 mM, Table 9-2): 23.5%
Molecule: O=S(=O)(O)CC(O)CN1CCOCC1 (centres unmarked) [MOPSO, 2-hydroxy-3-morpholino-propanesulfonic acid]

stabilizing action of the stabilizer (in words) ([1]; CFP-T7): did not have any stabilizing action
CFP-T7 Residual Activity (%) ([1]; Stabilizer 20 mM, Table 9-2): 3.0%
Molecule: O=S(=O)(O)CCNC1CCCCC1 [CHES, N-cyclohexyl-2-aminoethane sulfonic acid, reference compound]

Molecule: CC(=O)O [Acetate, acetic acid]
CFP-T7 Residual Activity (%) ([1]; Stabilizer 10 mM, Table 9-1): 8.9%
CFP-T7 Residual Activity (%) ([1]; Stabilizer 20 mM, Table 9-1): 20.7%
CFP-T7 Residual Activity (%) ([1]; Stabilizer 50 mM, Table 9-1): 52.4%
PnFX Residual Activity (%) [2]: 42.6%

Molecule: O=C(O)CCCC(=O)O [Glutarate, glutaric acid]
CFP-T7 Residual Activity (%) ([1]; Stabilizer 2 mM, Table 9-2): 4.5%
CFP-T7 Residual Activity (%) ([1]; Stabilizer 10 mM, Table 9-2): 55.9%

Molecule: NC(=O)CNCCS(=O)(=O)O [ACES, N-(2-acetamido)-2-aminoethanesulfonic acid]
CFP-T7 Residual Activity (%) ([3]; Buffer Solution 20 mM, pH 7.0 (citrate pH 6.0)): 15.6%
CFP-T7 Residual Activity (%) [3, 5]: 16.4%
CFP-T7 Residual Activity (%) ([3]; Buffer Solution 200 mM, pH 7.0): 22.1%

CFP-T7 Residual Activity (%) ([1]; Stabilizer 2 mM, Table 9-2): 15.5%
CFP-T7 Residual Activity (%) ([1]; Stabilizer 10 mM, Table 9-2): 81.5%
Molecule: O=C(O)/C=C\C(=O)O [Maleate, maleic acid]

Molecule: O=S(=O)(O)CCN1CCN(CCO)CC1 [HEPES, 4-2-hydroxyethyl-1-piperazine-ethanesulfonic acid, reference compound]
CFP-T7 Residual Activity (%) ([3]; Buffer Solution 50 mM, pH 7.0 (citrate pH 6.0)): 13.2%
CFP-T7 Residual Activity (%) [3, 5]: 13.2%
CFP-T7 Residual Activity (%) ([3]; Buffer Solution 150 mM, pH 7.0): 12.2%
CFP-T7 Residual Activity (%) ([3]; Buffer Solution 300 mM, pH 7.0): 9.6%
amadoriase stabilizing effect of the buffer (in words) [3]: does not have an amadoriase stabilizing effect
amadoriase stabilizing effect of the buffer (in words) ([3]; listed as HEPES buffering agent): not observed

CFP-T7 Residual Activity (%) ([1]; Stabilizer 2 mM, Table 9-2): 10.8%
CFP-T7 Residual Activity (%) ([1]; Stabilizer 10 mM, Table 9-2): 77.3%
Molecule: O=C(O)CC(=O)O [Malonate, malonic acid]

CFP-T7 Residual Activity (%) ([1]; Stabilizer 2 mM, Table 9-2): 18.5%
CFP-T7 Residual Activity (%) ([1]; Stabilizer 10 mM, Table 9-2): 89.1%
Molecule: C/C(=C/C(=O)O)C(=O)O [Citraconate, citraconic acid]

B1: NvFX: ketoamine oxidase derived from Neocosmospora vasinfecta, SEQ ID NO: 38 (protein, listed as Neocosmospora vasinfecta)
chain: MTTPRKETTVLIIGGGGTIGSSTALHLLRAGYTPSNITVLDTYPIPSAQSAGNDLNKIMGIRLRNKVDLQLSLEARDMWRNDALFRPFFHNTGRLDCESSAEGVEGLRREYQKLVEAGVGLEETHEWLDSEEAILEKAPLLQREEIEGWKAIWSEEGGWLAAAKAINAIGEELQRQGVRFGFGGAGSFKRPLFADDGTTCIGVETVDGTQYHADKVVLAAGAWSPALVDLEEQCCSKAWVYAHMQLTPEEAAVYKGCPVVYHGDVGFFFEPNENGVIKVCDEFPGFTRFKQHQPYGAPAPKPVSVPRSHAKHPTDTYPDASEESIKRAVSTFLPRFKDKPLFNRALCWCTDTADSALLICEHPRWKNFILATGDSGHSFKLLPIIGKHVVELVEGRLADDLAEAWRWRPGQGDARKSIRAAPAKDLADMPGWKHDQDSESR
measurement of αFVH under the mixing of CTAC (in words) [4]: αFVH could not accurately be measured
Amount of Change in Absorbance at Wavelength of 751 nm under Mixing of Each Concentration of CTAC ([4]; Mixing of CTAC 0%): 0.118
Amount of Change in Absorbance at Wavelength of 751 nm under Mixing of Each Concentration of CTAC ([4]; Mixing of CTAC 0.01%): 0.013
Amount of Change in Absorbance at Wavelength of 751 nm under Mixing of Each Concentration of CTAC ([4]; Mixing of CTAC 0.02%): 0.013
Amount of Change in Absorbance at Wavelength of 751 nm under Mixing of Each Concentration of CTAC ([4]; Mixing of CTAC 0.04%): 0.007
Amount of Change in Absorbance at Wavelength of 751 nm under Mixing of Each Concentration of CTAC ([4]; Mixing of CTAC 0.06%): 0.004
Amount of Change in Absorbance at Wavelength of 751 nm under Mixing of Each Concentration of CTAC ([4]; Mixing of CTAC 0.1%): 0.003
Amount of Change in Absorbance at Wavelength of 751 nm under Mixing of Each Concentration of CTAC ([4]; Mixing of CTAC 0.2%): 0.001
